Reference: US8278044B2, “Method for the identification of carcinogenic compounds” (priority 2008, dated 2012)

What was measured:
[1] = system: HepG2 cells; assay: Flow cytometric analysis of cell cycle; format: cell-based, human; conditions: 3 μM BaP
Protocol: (§1) Two independent experiments were conducted.
(§2) Analyses of cell cycle profiles and apoptosis was performed as previously described using a FACSort (Becton Dickinson, Sunnyvale, USA) (29). For DNA content cells were stained with propidium iodide; apoptotic cells were visualised with the primary antibody M30 CytoDeath (Roche, Penzberg, Germany) and FITC conjugated anti-mouse Ig as secondary antibody (DakoCytomation, Glostrup, Denmark). For each sample 10,000 cells were analyzed. Cells in the G0-1, S or G2-M phase were expressed as a percentage of the total number of cells.

[2] = system: HepG2 cells; assay: Flow cytometric analysis of apoptosis (M30 CytoDeath); format: cell-based; conditions: human, 3 μM
Protocol: as §1, §2

[3] = system: HepG2 cells; assay: Gene expression analyses with DNA microarrays (Agilent), Reactome and T-profiler; format: cell-based, human; conditions: 3 μM BaP
Protocol: Labelling and hybridisation of RNA samples was done according to Agilent's manual for microarrays (Agilent Technologies, Breda, The Netherlands). […] For each biological experiment, two hybridizations per time point were conducted, with swapped Cy3 and Cy5 dyes.
The images (10 micron resolution; 16 bit tiff) were processed with ImaGene 6.0 to quantify spot signals (BioDiscovery Inc., Los Angeles, USA). Irregular spots were automatically flagged and excluded from data analysis. Data from ImaGene were further processed with GeneSight 4.1.6 (BioDiscovery Inc., Los Angeles, USA). For each spot, background was subtracted and flagged spots as well as spots with a net expression level below 20 in both channels were omitted. Data were log base 2 transformed and LOWESS normalized. If for a gene more probes were on the array, replicates were averaged while omitting outliers (>2 standard deviations). Raw data are available at ArrayExpress (accession numbers E-TOXM-22 and E-TOXM-23, for the first and second experiment respectively) (www.ebi.ac.uk/arrayexpress/).
Second, genes were selected by ANOVA using the plug-in “Time series analysis” from BRB Array Tools (version 3.4 and R version 2.2.0; linus.nci.nih.gov/BRB-ArrayTools.html) with “Time” as descriptor.
Reactome (www.reactome.org; Version 25, August 2008) (45) is used to examine the biological processes that may be affected at the level of reactions and reaction pathways, a level of detail that cannot be obtained by gene ontology annotations, and KEGG and BioCarta pathways. Reactions are grouped into causal chains to form pathways. […] The ratio of these number of differentially genes per event with total numbers present in the set of 2808 genes, are used for visualisation of affected pathways. Rctions were ordered by main pathway and sub-pathway.
T-profiler is used for functional annotation of pathways and processes in the complete data set of genes without pre-selecting modulated genes. T-profiler uses the unpaired t-test to score the difference between the mean expression level of predefined sets of genes and that of all other genes within the complete data set (46). […] Per experiment and time point t-values were determined for each gene set. Only gene sets with an absolute t-value>4 at at least 2 succeeding time points in both experiments were selected for further analyses.

c1ccc2c(c1)cc1ccc3cccc4ccc2c1c34 [BaP, benzo[a]pyrene]
duration of S-phase accumulation [1]: 6 to 18 h
time after which cell cycle distribution becomes similar to that of the controls [1]: about 54 h
S-phase cells ([1]; at 18 h, concomitant decrease of cells in G1 and G2 phases): drastic increase
apoptotic cells levels [2]: 0.5-3%
POLR2A expression (TC-NER) [3]: upregulated at early time points
POLR2D expression (TC-NER) [3]: downregulated at late time points
base excision repair and global genomic repair pathways [3]: induced from 9/12 h until 60 h
period of upregulation of DDB2 (GG-NER) [3]: 9 to 60 h
period of upregulation of GC-NER (global genomic NER) reaction pathway [3]: 9 to 60 h
period of upregulation of TC-NER reaction pathway [3]: 9 to 42 h
